Reference: PMC8753592, “Long-acting capsid inhibitor protects macaques from repeat SHIV challenges” (Nature, 2021)
Several values for one entry are separate records, joined by “and”; a condition that tells them apart may be missing. Equal values may be shown once. Read-outs that look alike come from different tables or passages of the source.

Columns and labels:
[1] = ref Yant et al, Nat.Med, 2019;[4]; cited from earlier work
SHIV-SF162P3 = experiment: microbe, parasite or virus in culture; type: cell-based, SHIV (in rhesus macaque, Macaca mulatta, PBMCs); details: for % Virus Production, replicates n1–n3: experiments 1–7; for % Virus Production, MEAN: per experiment 1–7
Experimental: Freshly isolated PBMCs from three male rhesus macaque (M. mulatta) donors of Indian origin (HumanCells Biosciences) were cultured in RPMI-1640 cell culture medium (Life Technologies) supplemented with 10% heat-inactivated FBS (Hyclone), 2 mM glutamine and 100 U ml^−1 penicillin plus 100 μg ml^−1 streptomycin (complete RPMI). Before their use in the antiviral assays, rhesus PBMCs from three independent donors were pooled and activated at a density of 3 × 10^6 cells per ml for 72 h at 37 °C by the addition of 1 μg ml^–1 phytohemagglutinin (PHA, Sigma-Aldrich) and 50 U ml^−1 recombinant human interleukin-2 (IL-2) (Roche Diagnostics).
PHA/IL-2-stimulated rhesus PBMCs were infected in bulk culture with SHIV-SF162P3 at a concentration of 130 pg of p27 equivalent per million PBMCs. The cells were maintained in suspension by gently rocking the cultures mixed with virus inoculum for 3 h at 37 °C. The cells were then pelleted by centrifugation at 500g for 5 min, washed twice with complete RPMI to remove any unadsorbed virus and seeded into 96-well plates at a cell density of 2 × 10^5 cells per well in 100 μl. […] The cultures were incubated in a 5% CO2 incubator at 37 °C for 7 days. Cell-free supernatants derived from the PBMC cultures were harvested 7 days after infection, the amount of SHIV present was quantified using an SIV p27 antigen-capture ELISA assay (5436, Advanced Bioscience Laboratories) performed according to the manufacturer’s protocol, and the data were acquired using SoftMax Pro 6.3.1 software (Molecular Devices).

[2] = ref Yant et al, Nat.Med, 2019;[4]; cited from earlier work; remark: listed apart in the source
HIV-1 IIIb strain = experiment: High-density antiviral dose–response curves (Hill slope) against HIV-1 IIIb in MT-4 cells; type: cell-based
CA hexamer = details: ref Yant et al, Nat.Med, 2019;[4]; read-out: Binding Affinity (KD), CA hexamer; cited from earlier work

CC(C)(C#Cc1ccc(-c2ccc(Cl)c3c(NS(=O)(=O)C4CC4)nn(CC(F)F)c23)c([C@H](Cc2cc(F)cc(F)c2)NC(=O)Cn2nc(C(F)F)c3c2C(F)(F)[C@@H]2C[C@H]32)n1)S(C)(=O)=O [GS-CA1]
T1/2, human cryopreserved hepatocytes [1]: 130 h
% Virus Production, replicates n1–n3 (SHIV-SF162P3; 0.011 nM): 122% and 104% and 99% and 93% and 127% and 160% and 82% and 121% and 88% and 87% and 68%
% Virus Production, MEAN (SHIV-SF162P3; 0.011 nM): 108% and 126% and 97% and 83% and 121% and 68%
% Virus Production, replicates n1–n3 (SHIV-SF162P3; 0.034 nM): 106% and 78% and 72% and 136% and 114% and 75% and 116% and 105% and 181% and 64% and 89% and 82% and 53% and 93%
% Virus Production, replicates n1–n3 (SHIV-SF162P3; 0.103 nM): 127% and 124% and 79% and 73% and 103% and 118% and 130% and 152% and 105% and 82% and 99% and 121% and 76% and 71%
% Virus Production, MEAN (SHIV-SF162P3; 0.103 nM): 110% and 85% and 133% and 95% and 89% and 99% and 67%
% Virus Production, replicates n1–n3 (SHIV-SF162P3; 0.309 nM): 75% and 74% and 102% and 149% and 120% and 72% and 78% and 94% and 103% and 109% and 66%
% Virus Production, replicates n1–n3 (SHIV-SF162P3; 0.926 nM): 65% and 37% and 36% and 39% and 31% and 20% and 16% and 18% and 23% and 70% and 14% and 22%
% Virus Production, replicates n1–n3 (SHIV-SF162P3; 2.778 nM): 0.408% and 2% and 2.34% and 1.77% and 1.55% and 0.489% and 2.2% and 1.37% and 0.76% and 0.799%
% Virus Production, MEAN (SHIV-SF162P3; 2.778 nM): 1.61% and 1.79% and 1.35% and 1.16% and 2.6% and 1.28% and 0.0528%
% Virus Production, replicates n1–n3 (SHIV-SF162P3; 8.333 nM): 1.76% and 1% and 0.517% and 0.425% and 0.705% and 0.145% and 0.0164% and 0.262% and 1.4% and 0.22% and 0.682% and 0.142%
% Virus Production, MEAN (SHIV-SF162P3; 8.333 nM): 1.08% and 0.425% and 0.559% and 0.348% and 1.87% and 0.078% and 0.398%
% Virus Production, replicates n1–n3 (SHIV-SF162P3; 25.000 nM): -0.0465% and -0.0193% and 0.798% and -0.276% and 0.164% and 0.276% and 1% and 0.434% and -0.106% and 0.12% and 0.292% and 0.064% and 0.0863%
% Virus Production, MEAN (SHIV-SF162P3; 25.000 nM): 0.244% and 0.0545% and 0.436% and 0.159% and -0.387% and 0.675% and 0.293%
Rhesus PBMC paEC95 (SHIV-SF162P3; EC95 × rhesus plasma shift): 30.2 nM and 30.2 ± 2.5 nM and 30 nM
EC50 (SHIV-SF162P3; Simian immunodeficiency virus, PBMC, in Macaca mulatta, 168 h, read-out: EC50, rhesus PBMCs, SHIV-SF162P3, mean of 7 assays, SIV p27 ELISA day 7 post-infection): 0.72 nM
EC50 (SHIV-SF162P3; Simian immunodeficiency virus, PBMC, in Macaca mulatta, 168 h, read-out: SHIV162P3-rhPBMC-EC50, individual experiments, single experiments n1–n7, SIV p27 ELISA day 7): 0.66 nM
Rhesus PBMC EC95 (SHIV-SF162P3; calculated from SHIV EC50 and Hill slope: EC50 × (95/5)^1/n): 1.91 nM and 1.91 ± 0.16 nM and 1.9 nM
EC50 (SHIV-SF162P3; read-out: SHIV162P3-rhPBMC-EC50, individual experiments, single experiments n1–n7, SIV p27 ELISA day 7): 0.71 nM and 0.777 nM and 0.868 nM and 0.535 nM and 0.74 nM (2×) and 0.661 nM and 0.78 nM and 0.714 nM and 0.87 nM and 0.54 nM
Predicted Hepatic Clearance, rate, primary human hepatocytes [2]: 0.33 mL/min/kg
Hill slope (n) (HIV-1 IIIb strain): 3.03 ± 0.69 and 3.0 ± 0.7
Kd (CA hexamer): 0.38 nM
